Results reported in publication PMC8040948 (Journal of medicinal chemistry, 2020).
Converted amounts (≈) assume the structure as drawn. “Also recorded” adds a separate entry of the source. Where two headings read alike, the source gives them in different places.

How the values were obtained:
CB1 cannabinoid receptor = CB1 cannabinoid receptor (Homo sapiens, UniProt P21554); assay: PDSP functional agonist/antagonist assay, CB1; format: cell-based
[1] = Observed solubility in water, DMSO or aqueous DMSO; details: for solubility in DMSO at 1 mM: as a zwitterion, 1 mM in DMSO
ASP/OVA-sensitized mice = assay: Ovalbumin/Aspergillus protease mouse model of allergic asthma, BALF cell counts; details: 10 mg/kg ip 30 min prior to allergen challenge, BALF 2 days post-challenge
mP2Y14R [2] = molecular target: T1, mP2Y14R (Mus musculus, UniProt Q9ESG6); details: mP2Y14R-expressing HEK293 cells, 1 μM, fluorescence micrographs; ref [12]; cited from earlier work
T1 sequence (Q9ESG6 1-338): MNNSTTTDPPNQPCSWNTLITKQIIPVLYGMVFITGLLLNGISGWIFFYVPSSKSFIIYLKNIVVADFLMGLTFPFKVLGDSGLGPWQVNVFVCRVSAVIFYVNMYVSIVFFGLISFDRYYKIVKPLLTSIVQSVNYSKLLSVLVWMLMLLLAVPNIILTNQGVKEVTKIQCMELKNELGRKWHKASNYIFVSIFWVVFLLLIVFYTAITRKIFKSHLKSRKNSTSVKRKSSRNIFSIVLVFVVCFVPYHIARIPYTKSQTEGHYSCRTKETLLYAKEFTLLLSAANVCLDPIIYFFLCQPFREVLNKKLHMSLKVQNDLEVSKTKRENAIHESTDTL

CB2 cannabinoid receptor = CB2 cannabinoid receptor (Homo sapiens, UniProt P34972); assay: PDSP functional agonist/antagonist assay, CB2; format: cell-based
[3] = test system: CCI of the sciatic nerve in adult male ICR mice; details: mouse, 10 μmol/kg, ip; ref Mufti et al.[12]; cited from earlier work
other P2YRs = details: ref [8],[17]; cited from earlier work
[4] = test system: 46 receptors, transporters, and ion channels; details: non-P2YR off-target screen; ref [8],[9]; cited from earlier work
[5] = Relative lipophilicity from RP-HPLC retention time; format: physicochemical; details: RP-HPLC retention time (C18), 10 to 100% acetonitrile in 10 mM triethylammonium acetate
[6] = Plasma protein binding in three species
mP2Y14R [7] = molecular target: T1, mP2Y14R; details: species comparison
[8] = test system: CCI of the sciatic nerve in adult male ICR mice; assay: Chronic constriction injury; details: mouse, 10 μmol/kg, ip
[9] = Aqueous solubility, pION method
hP2Y14R [10] = molecular target: T2, hP2Y14R (Homo sapiens, UniProt Q15391); format: binding; details: for fold lower hP2Y14R affinity than 2: relative to reference triazole 2; for fold lower hP2Y14R affinity than 22: relative to reference 22
T2 sequence (Q15391 1-338): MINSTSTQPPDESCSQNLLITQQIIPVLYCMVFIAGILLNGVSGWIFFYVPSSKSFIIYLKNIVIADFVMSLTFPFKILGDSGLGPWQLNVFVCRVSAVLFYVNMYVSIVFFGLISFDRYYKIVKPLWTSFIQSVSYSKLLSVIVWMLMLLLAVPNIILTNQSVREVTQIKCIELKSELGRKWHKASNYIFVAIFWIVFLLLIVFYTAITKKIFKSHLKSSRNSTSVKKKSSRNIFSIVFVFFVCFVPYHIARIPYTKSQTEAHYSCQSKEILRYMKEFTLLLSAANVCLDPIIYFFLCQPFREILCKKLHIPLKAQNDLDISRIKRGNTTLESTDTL

hP2Y14R [11] = molecular target: T2, hP2Y14R; assay: Competitive binding assay of CHO-hP2Y14R cells at different pH levels
[12] = Pharmacokinetics in the rat, ip and iv
δ-opioid (DOR) receptor = δ-opioid (DOR) receptor (Homo sapiens, UniProt P41143); assay: PDSP off-target binding, DOR
δ-opioid (DOR) receptor, sequence (P41143 whole entry): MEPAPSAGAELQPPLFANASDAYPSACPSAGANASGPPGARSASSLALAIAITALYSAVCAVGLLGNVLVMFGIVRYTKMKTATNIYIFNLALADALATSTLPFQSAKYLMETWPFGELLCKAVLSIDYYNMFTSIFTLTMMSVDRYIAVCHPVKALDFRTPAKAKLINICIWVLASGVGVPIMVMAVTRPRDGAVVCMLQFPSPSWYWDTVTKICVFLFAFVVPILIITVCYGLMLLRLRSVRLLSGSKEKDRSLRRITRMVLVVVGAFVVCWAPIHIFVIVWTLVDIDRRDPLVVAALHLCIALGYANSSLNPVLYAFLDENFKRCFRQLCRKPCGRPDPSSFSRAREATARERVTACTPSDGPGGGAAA

CB1 cannabinoid receptor, sequence (P21554 whole entry): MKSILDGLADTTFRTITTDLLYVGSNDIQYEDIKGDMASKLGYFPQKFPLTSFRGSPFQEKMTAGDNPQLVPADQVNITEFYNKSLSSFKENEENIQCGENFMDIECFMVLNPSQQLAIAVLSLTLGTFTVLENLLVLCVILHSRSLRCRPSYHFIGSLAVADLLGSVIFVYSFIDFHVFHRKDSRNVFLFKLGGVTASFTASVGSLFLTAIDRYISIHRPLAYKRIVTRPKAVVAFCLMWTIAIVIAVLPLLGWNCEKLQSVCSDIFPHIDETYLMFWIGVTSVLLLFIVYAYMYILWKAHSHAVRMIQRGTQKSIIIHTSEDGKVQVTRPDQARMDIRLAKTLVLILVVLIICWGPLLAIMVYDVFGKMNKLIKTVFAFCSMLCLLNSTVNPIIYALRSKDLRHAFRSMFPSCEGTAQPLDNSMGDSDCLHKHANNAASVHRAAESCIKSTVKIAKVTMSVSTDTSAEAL
CB2 cannabinoid receptor, sequence (P34972 whole entry): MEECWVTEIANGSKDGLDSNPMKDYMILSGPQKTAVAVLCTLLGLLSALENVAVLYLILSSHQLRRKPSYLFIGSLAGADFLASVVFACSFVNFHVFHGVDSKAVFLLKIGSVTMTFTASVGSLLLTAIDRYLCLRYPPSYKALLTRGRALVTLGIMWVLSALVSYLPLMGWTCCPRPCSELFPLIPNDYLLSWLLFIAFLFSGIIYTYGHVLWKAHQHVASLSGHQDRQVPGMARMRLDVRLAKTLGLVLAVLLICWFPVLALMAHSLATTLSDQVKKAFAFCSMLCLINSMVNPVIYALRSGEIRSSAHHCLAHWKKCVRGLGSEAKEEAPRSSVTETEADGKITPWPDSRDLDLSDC

## O=C(O)c1cc(-c2ccc(C3CCNCC3)cc2)c2ccc(-c3ccc(C(F)(F)F)cc3)cc2c1 [Compound 1, 4-[4-(4-piperidinyl)-phenyl]-7-[4-(trifluoromethyl)phenyl]-2-naphthalenecarboxylic acid, reference compound]
CB1 cannabinoid receptor
  IC50: > 10 µM
[1]
  solubility in DMSO at 1 mM: failed to dissolve
ASP/OVA-sensitized mice
  effect on eosinophilic airway inflammation: protected; also recorded: strongly attenuated eosinophilic airway inflammation
mP2Y14R [2]
  inhibition of intact cell binding of 36: almost completely inhibited
CB2 cannabinoid receptor
  IC50: > 10 µM
[3]
  efficacy in CCI model: effective

## O=C(O)c1cc(-c2ccc(C3CCNCC3)cc2)cc(-n2cc(-c3ccc(C(F)(F)F)cc3)nn2)c1 [Compound 2, reference compound]
Other P2YRs
  activity at other P2YRs: inactive
[4]
  off-target interactions: no detected off-target interactions
ASP/OVA-sensitized mice
  effect on eosinophilic airway inflammation: inactive

## CCCN1CCC(c2ccc(-c3cc(C(=O)O)cc4cc(-c5ccc(C(F)(F)F)cc5)ccc34)cc2)CC1 [Compound 6b, 4-(4-(1-Propylpiperidin-4-yl)phenyl)-7-(4-(trifluoromethyl)phenyl)-2-naphthoic Acid]
[4]
  off-target interactions: no detected off-target interactions

## C#CCCCCN1CCC(c2ccc(-c3cc(C(=O)O)cc4cc(-c5ccc(C(F)(F)F)cc5)ccc34)cc2)CC1 [Compound 7a, 4-(4-(1-(Hex-5-yn-1-yl)piperidin-4-yl)phenyl)-7-(4-(trifluoromethyl)phenyl)-2-naphthoic Acid]
[4]
  off-target interactions: no detected off-target interactions
ASP/OVA-sensitized mice
  effect on eosinophilic airway inflammation: protected; also recorded: highest potency of reducing eosinophil infiltration

## CC(=O)N1CCC(c2ccc(-c3cc(C(=O)O)cc4cc(-c5ccc(C(F)(F)F)cc5)ccc34)cc2)CC1 [Compound 8, 4-(4-(1-(Acetyl)piperidin-4-yl)phenyl)-7-(4-(trifluoromethyl)phenyl)-2-naphthoic Acid]
[3]
  efficacy in CCI model: effective

## NCCOCCOCCOCCOCCOCCOCCC(=O)N1CCC(c2ccc(-c3cc(C(=O)O)cc4cc(-c5ccc(C(F)(F)F)cc5)ccc34)cc2)CC1 [Compound 12, 4-(4-(1-(1-Amino-3,6,9,12,15,18-hexaoxahenicosan-21-oyl)piperidin-4-yl)phenyl)-7-(4-(trifluoromethyl)phenyl)-2-naphthoic Acid]
[5]
  lipophilicity (Δk), relative to 1: 0.71 ± 0.03
[6]
  plasma protein binding: high
mP2Y14R [7]
  fold greater affinity at the mouse homologue than at the hP2Y14R: 2 fold
[8]
  effect on the hind paw response contralateral to the injury: No effect
  time of peak protection post-injection: 1 to 2 h
[8]; 7 days post-CCI, ipsilateral hind paw
  reversal of CCI-induced mechano-allodynia: reduced chronic pain; also recorded: fully efficacious
[1]; water
  solubility: ≥ 150 mM
[9]; pH 4
  solubility: 8.02 ± 1.01 µg/mL (≈ 9.89 µM)
[9]; pH 7.4
  solubility: 7.16 ± 1.16 µg/mL (≈ 8.83 µM)
[9]; pH 7.4, relative to 1
  fold greater aqueous solubility than 1: ~20 fold
ASP/OVA-sensitized mice
  effect on eosinophilic airway inflammation: inactive
hP2Y14R [10]; hP2Y14R, IC50 (nM), Table 2, hP2Y14R-CHO cells, values from Tables 1A and 1B
  IC50: 963 ± 417 nM

## O=C(O)c1cc(-c2ccc(C34CCN(CC3)CC4)cc2)c2ccc(-c3ccc(C(F)(F)F)cc3)cc2c1 [Compound 17, 4-(4-(Quinuclidin-4-yl)phenyl)-7-(4-(trifluoromethyl)phenyl)-2-naphthoic Acid]
[6]
  plasma protein binding: high
[1]
  solubility: ≥ 1000 µg/mL
  solubility in DMSO at 1 mM: readily soluble
[9]; pH 4, aqueous solubility (pH 4.0, μg/mL), Table 5, pH 4.0, mean ± SD, pION method
  solubility: 14.3 ± 0.5 µg/mL (≈ 28.5 µM)
[9]; pH 7.4, aqueous solubility (pH 7.4, μg/mL), Table 5, pH 7.4, mean ± SD, pION method
  solubility: 0.44 ± 0.06 µg/mL (≈ 0.877 µM)
ASP/OVA-sensitized mice
  effect on eosinophilic airway inflammation: protected
hP2Y14R [11]
  IC50: 0.0308 ± 0.0022 µM
[12]
  time at which maximal plasma concentration was reached: 3 to 4 h
[12]; highest dose (10 mg/kg), 12 h
  plasma concentration at the 12 h time point: 200 to 400 ng/kg

## O=C(O)c1cc(-c2ccc(C34CCNCC3C4)cc2)cc(-n2cc(-c3ccc(C(F)(F)F)cc3)nn2)c1 (stereo not drawn) [Compound 19, 4′-(3-Azabicyclo[4.1.0]heptan-6-yl)-5-(4-(4-(trifluoromethyl)phenyl)-1H-1,2,3-triazol-1-yl)-[1,1′-biphenyl]-3-carboxylic Acid]
hP2Y14R [10]
  fold lower hP2Y14R affinity than 2: 11 fold

## O=C(O)c1cc(-c2ccc(C34CCNCC3C4(F)F)cc2)cc(-n2cc(-c3ccc(C(F)(F)F)cc3)nn2)c1 (stereo not drawn) [Compound 20, 4′-(7,7-Difluoro-3-azabicyclo[4.1.0]heptan-6-yl)-5-(4-(4-(trifluoromethyl)phenyl)-1H-1,2,3-triazol-1-yl)-[1,1′-biphenyl]-3-carboxylic Acid]
hP2Y14R [10]
  fold lower hP2Y14R affinity than 2: 20 fold

## C[N+]12CCC(c3ccc(-c4cc(C(=O)O)cc5cc(-c6ccc(C(F)(F)F)cc6)ccc45)cc3)(CC1)CC2 [Compound 21, 4-(4-(1-Methylquinuclidin-1-ium-4-yl)phenyl)-7-(4-(trifluoromethyl)phenyl)-2-naphthoate]
[6]
  plasma protein binding: high

## NCCCNC(=O)c1ccc(-c2cc(C(=O)O)cc(-n3cc(-c4ccc(C(F)(F)F)cc4)nn3)c2)s1 [Compound 23, reference compound]
[6]
  plasma protein binding: high
ASP/OVA-sensitized mice
  effect on eosinophilic airway inflammation: protected

## NC(=O)c1ccc(-c2cc(C(=O)O)cc(-c3cn(-c4ccc(C(F)(F)F)cc4)nn3)c2)cc1 [Compound 24, 4′-Carbamoyl-5-(1-(4-(trifluoromethyl)phenyl)-1H-1,2,3-triazol-4-yl)-[1,1′-biphenyl]-3-carboxylic Acid]
hP2Y14R [10]
  fold lower hP2Y14R affinity than 22: 6.2 fold

## O=C(O)c1cc(-c2ccc(C3CCNCC3)cc2)cc(-c2cn(-c3ccc(C(F)(F)F)cc3)nn2)c1 [Compound 25, 4′-(Piperidin-4-yl)-5-(1-(4-(trifluoromethyl)phenyl)-1H-1,2,3-triazol-4-yl)-[1,1′-biphenyl]-3-carboxylic Acid]
[6]
  plasma protein binding: high
CB1 cannabinoid receptor
  IC50: > 10 µM
CB2 cannabinoid receptor
  IC50: > 10 µM

## NCCCNC(=O)c1ccc(-c2cc(C(=O)O)cc(-c3cn(-c4ccc(C(F)(F)F)cc4)nn3)c2)s1 [Compound 26, 3-(5-((3-Aminopropyl)carbamoyl)thiophen-2-yl)-5-(1-(4-(trifluoromethyl)phenyl)-1H-1,2,3-triazol-4-yl)benzoic Acid]
δ-opioid (DOR) receptor
  Ki: 2.96 µM

## NC(=O)c1ccc(-c2cc(NC(=O)c3ccc(C(F)(F)F)cc3)cc(C(=O)O)c2)cc1 [Compound 27, 4′-Carbamoyl-5-(4-(trifluoromethyl)benzamido)-[1,1′-biphenyl]-3-carboxylic Acid]
hP2Y14R [10]
  fold lower hP2Y14R affinity than 22: 11 fold

## O=C(O)c1cc(NC(=O)C23C4C5C2C2C3C4C52CO)cc(-c2ccc(C3CCNCC3)cc2)c1 (stereo not drawn) [Compound 28, 5-(4-(Hydroxymethyl)cubane-1-carboxamido)-4′-(piperidin-4-yl)-[1,1′-biphenyl]-3-carboxylic Acid]
hP2Y14R [10]; IC50 (μM), Table 1B, cells that print only footnote mark c
  IC50: > 100000 nM
hP2Y14R [10]; IC50 at hP2Y14R
  IC50: > 100000 nM

## O=C(O)c1cc(-c2ccc(C3CCNCC3)cc2)c2nc(-c3ccc(C(F)(F)F)cc3)[nH]c2c1 [Compound 35, 4-(4-(Piperidin-4-yl)phenyl)-2-(4-(trifluoromethyl)phenyl)-1H-benzo[d]imidazole-6-carboxylic Acid]
hP2Y14R [10]; IC50 at hP2Y14R
  IC50: > 100000 nM
